Measured values: US20080207718A1, “Use of Fused Imidazole Derivatives to Mediate Ccr3 Related Conditions” (priority 2005, published 2008)

Molecular target: T1, human CCR-3 (Homo sapiens, UniProt P51677)
T1 construct: expressed in transfected cells; host or cells: rat basophil leukaemia (RBL-2H3) cells, membrane preparation
T1 sequence (P51677 1-355): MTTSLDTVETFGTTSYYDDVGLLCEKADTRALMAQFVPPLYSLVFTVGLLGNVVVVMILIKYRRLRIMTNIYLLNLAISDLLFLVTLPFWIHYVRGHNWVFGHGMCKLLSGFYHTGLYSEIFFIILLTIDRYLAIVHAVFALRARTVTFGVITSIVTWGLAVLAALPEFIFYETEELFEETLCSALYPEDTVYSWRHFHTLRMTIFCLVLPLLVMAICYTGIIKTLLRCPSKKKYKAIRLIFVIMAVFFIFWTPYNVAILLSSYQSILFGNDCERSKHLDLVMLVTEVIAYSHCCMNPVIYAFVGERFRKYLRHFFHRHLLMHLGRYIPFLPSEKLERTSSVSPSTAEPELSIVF
Assay: binding of [125I]-human eotaxin to human CCR3 (SPA, membranes of RBL-2H3 cells expressing CCR3)
Settings: 4 hours at room temperature, read-out: IC50 value (inhibition of eotaxin binding to CCR3)
Description: In this assay the effect of the compounds of the present invention on the binding of human eotaxin to human CCR-3 is determined. Recombinant cells expressing human CCR3 are captured by wheatgerm agglutinin (WGA) polyvinyltoluidene (PVT) SPA beads (available from Amersham), through a specific interaction between the WGA and carbohydrate residues of glycoproteins on the surface of the cells. [^125I]-human eotaxin (available from Amersham) binds specifically to CCR3 receptors bringing the [^125I]-human eotaxin in close proximity to the SPA beads. Emitted […] from the [^125I]-human eotaxin excite, by its proximity, the fluorophore in the beads and produce light.
Preparation of Assay Buffer: 5.96 g HEPES and 7.0 g sodium chloride are dissolved in distilled H2O and 1M aqueous CaCl2 (1 ml) and 1M aqueous MgCl2 (5 ml) are added. The pH is adjusted to 7.6 with NaOH and the solution made to a final volume of 1 L using distilled H2O. 5 g of bovine serum albumin and 0.1 g NaN3 are dissolved in the solution and the resulting buffer stored at 4° C. […]
The assay is performed in a final volume of 250 μl per well of an Optiplate™ microplate (ex Canberra Packard). […] The resulting scintillations are counted using a Canberra Packard TopCount™ scintillation counter, each well being counted for 1 minute. […]

SMILES	IC50 [nM]
O=C(C[n+]1cc(-c2ccc(Cl)c(Cl)c2)n2c1CCC2)Nc1ccc2c(c1)OCCO2 [Example 341]	23
COc1ccc(OC)c(NC(=O)C[n+]2cc(-c3ccc(Cl)c(Cl)c3)n3c2CCC3)c1 [Example 322]	21
